The values below come from US10457891B2, “Organic compounds” (Givaudan, S.A., priority 2013, dated 2019).

Like-named read-outs stand apart in the source and are kept apart here.

Data set [1] relates to hepatocytes from male rats (Sprague Dawley). In words: In vitro metabolism study in rat hepatocytes in suspension, GC-MS. The following applies: for Residual concentration: male, Sprague Dawley, rat, 4 h, 100 μM. As for the experimental part:
In order to study in vitro metabolism in rat hepatocytes, Lilial™ and compounds of the present invention may be incubated in the presence of rat hepatocytes in suspension. Reduction in the concentration of Lilial™ and the compounds of the present invention and formation of any of the corresponding benzoic acid derivatives may be analysed by GC-MS.
Cryopreserved hepatocytes from male rats (Sprague Dawley; Lifetechnologies) were defrozen, washed in Cyropreserved Hepatocytes Recovery Medium (CHRM; Lifetechnologies) and suspended in Williams E Medium (WEM; Lifetechnologies). Lilial™, or the compounds of the present invention (final concentration: 100 μM) were added to the cells (1×10^6 viable cells/ml) and suspensions were incubated up to 4 hours at 37° C. on a shaker in duplicate. Metabolism of testosterone was monitored as positive control. Decrease of the test compounds and formation of the corresponding benzoic acid derivative was determined by GC-MS analysis of methyl esters formed after derivatisation with trimethylsilyl diazomethane (Sigma-Aldrich) in methanol. The test compounds react with diazomethane yielding a methyl ketone which was used for the quantification of Lilial™ and the compound of formula (I). Metabolism was stopped with ice cold 1 M HCl, samples were extracted with tert-butyl methyl ether (MTBE) and analysed by GC-MS. Incubations containing testosterone as control were also stopped with ice cold 1 M HCl, centrifuged to separate the cells, filtrated and the decrease of testosterone analysed by LC-MS.

Data set [2] deals with reproductive organs of male rats. The following applies: rat, in vivo; cited from earlier work.
The next data set has as its system mice. The following applies: mouse, in vivo; cited from earlier work.
Data set [3] relates to reproductive organs of dogs. The following applies: dog, in vivo; cited from earlier work.
The next data set concerns guinea-pigs. The following applies: guinea pig, in vivo; cited from earlier work.
A further data set has as its system primates. The following applies: cited from earlier work.

Regarding `Cc1cc(CC(C)C)ccc1CCC=O`, the Residual concentration in data set [1] is 0 µM.
The same measure, in the same setting: in the case of `Cc1cc(CCC(C)C)ccc1CCC=O` it was 0 µM; in that of `Cc1cc(CCCC(C)C)ccc1CCC=O`, 0 µM; in that of `Cc1cc(CC(C)C)cc(C)c1CCC=O`, 0 µM.
The same measure, in the same setting: under `Cc1ccc(CC(C)C)cc1CC(C)C=O` (centres unmarked) stands 0 µM; under `Cc1ccc(CCCC(C)C)cc1CCC=O`, 2.4 µM.
Take `CC(C=O)Cc1ccc(C(C)(C)C)cc1` (centres unmarked) [Lilial™, 3-(4-tert-butylphenyl)-2-methylpropanal]: the “Toxic effects on reproductive organs” value in data set [2] and in data set [3] was “toxic effects on the reproductive organs” in each case. Besides, the “Decrease / metabolism of compound in rat hepatocytes” value in data set [1] is listed as “metabolised rapidly”. Further, the Residual concentration in data set [1] was 0 µM. Also, the Toxic effects entry in the data set with mice, in the data set with guinea-pigs and in the data set on primates was “No effects” in each case.
In the case of `C[C@]12CC[C@H]3[C@@H](CCC4=CC(=O)CC[C@@]43C)[C@@H]1CC[C@@H]2O` [testosterone], the “Decrease / metabolism of compound in rat hepatocytes” value in data set [1] (rat hepatocytes, up to 4 hours at 37° C.) is “rapid decrease”.
